The text below walks through data of US10888549B2, “Pharmaceutical agents targeting cancer stem cells” (THE JOHNS HOPKINS UNIVERSITY, priority 2016, dated 2021).

SMILES strings stand for the structures.

Data set [1] has as its system MIRLET7BHG promoter. As to the kind of experiment: Bisulfite sequencing of let-7 host gene promoter. Type of data set: cell-based, human. As to conditions: bladder cancer cells. The procedure:
Cell pellets were digested with 1% sodium dodecyl sulfate and 50 μg/mL proteinase K (Roche, Nutley, USA) at 48° C. overnight. Isolation of genomic DNA from cell lines was performed with the phenol-chloroform extraction protocol followed by ethanol precipitation. Bisulfite treatment was conducted using an EpiTect Bisulfite Kit (QIAGEN, Valencia, USA), and was subsequently amplified via PCR using primers as shown in the following table. PCR products were purified using the QIAquick Gel Extraction kit (Qiagen), and sequenced by Genewiz DNA sequencing service (Genewiz, South Plainfield, USA). The data were analyzed using the Sequence Scanner v1.0 software (Life technologies). A methylation frequency of ≥50% of total CpG sites within the amplified region was considered “methylation-positive”. For demethylation, cells (1×10^6/T-75 flask) were treated with […] of the demethylating agent 5-Aza-dC (Sigma) dissolved in 50% acetic acid or were mock-treated with phosphate buffered saline (PBS) including the same amount of acetic acid every 24 hours for 5 days. When combined with the histone deacetylase inhibitor TSA (Sigma), 300 nmol/L TSA was added to the medium for the final 24 hours.

Data set [2] has as its system let-7. The experiment in a line: let-7 expression by Q-RT-PCR. Type of data set: cell-based, human. As to conditions: parental or spheroid bladder cancer cells. The procedure: Total RNA from cell lines was isolated using the RNeasy Plus Mini kit (Qiagen, Valencia, USA) according to the manufacturer's protocol. Total RNA extraction from bladder tissue was performed with the QIAzol Lysis Reagent (Qiagen) followed by phenol extraction and ethanol precipitation. Total RNA was eluted in DEPC treated water and stored at -80° C. Total RNA extraction from urine was performed using the […] Isolation Kit (Ambion, Austin, USA). These total RNA were converted to cDNA using the SuperScript III First-Strand Synthesis System (Life technologies, Carlsbad, USA), which was then used as a template for Q-RT-PCR. Q-RT-PCR was performed using the Fast SYBR Green Master Mix (Thermo Fisher Scientific, Waltham, USA) on a 7900HT Fast Real-Time PCR System (Life technologies) in triplicate. Micro RNA (miRNA) extraction was performed using the […] Isolation Kit, and was reverse transcribed using TaqMan reverse transcription kit (Applied Biosystems, Foster City, USA) and miRNA-specific RT primers provided with TaqMan microRNA assays (Applied Biosystems). Q-RT-PCR for miRNAs was performed using the TaqMan Universal PCR Master Mix according to the manufacturer's protocol. SDS software (Applied Biosystems) was used to determine cycle threshold (Ct) values. Expression level was quantified relative to β-actin for mRNA and RNU6B for miRNA using the 2-ΔΔCt method (12).

Data set [3] concerns SOX2. As to the kind of experiment: SOX2 expression by western blotting / flow cytometry. Type of data set: cell-based, human. As for the experimental part: (§1) Whole cell lysates were extracted using RIPA buffer (Thermo Scientific) supplemented with 10 μL/mL Halt™ Protease Inhibitor Cocktail Kit (Life Technologies) and 30 μL/mL Halt™ Phosphatase Inhibitor Cocktail Kit (Life Technologies). The protein concentrations were determined using a Pierce™ BCA Protein Assay Kit (Life Technologies), and the protein were separated on NuPAGE® 4-12% Bis-Tris Gel (Life Technologies) according to the manufacturer's protocol. COX2 (D5H5), NANOG (D73G4), OCT4 (D7O5Z), CD133 (A3G6K), Snail (C15D3), ZEB1 (D80D3), Vimentin (D21H3), CDH2 (D4R1H), CDH1 (24E10), p-EGFR (D7A5), EGFR (D38B1), p-AKT (D9E), AKT (cat #, 9272), p-ERK (D13.14.4E), ERK (137F5), p-YAP1 (D9W2I), p-Src (cat #, 2101), Src (36D10), DNMT1 (D63A6), DNMT3A (D23G1), and DNMT3B (D7O7O) antibodies were obtained from Cell Signaling Technology (Danvers, Mass., USA), except for SOX2 (EPR3131; Abcam, Cambridge, USA), YAP1 (ab52771; Abcam), CD24 (cat #, AF5247-SP; R&D Systems, Minneapolis USA) and β-actin (A2228; Sigma-Aldrich). Secondary horseradish peroxidase (HRP)-conjugated antibodies were obtained from Cell Signaling Technology, and chemiluminescent detection of HRP-labeled antibodies was performed using Amersham ECL Prime Western Blotting Detection Reagent (GE Healthcare, Piscataway, USA). As loading control, β-actin was used.
For extracellular staining, cells (1×10^6/100 μL stain buffer) were incubated with PE-Vio770-conjugated anti-human CD133 (293C3; Miltenyi Biotec, Auburn, USA) or PE-conjugated anti-human CD24 antibody (cat #, 560991; BD Biosciences) for 30 min at 4° C. in dark. PE-Vio770-conjugated Isotype (cat #, 130-098-563; Miltenyi Biotec) and PE-conjugated IgG2a, κ Isotype (cat #, 555574; BD Biosciences) were used as control for CD133 and CD24 staining, respectively. Staining for intracellular SOX2 was carried out using the BD Cytofix/Cytoperm Fixation/Permeabilization Kit (BD Biosciences) according to manufacturer's protocol. The cells were incubated with Alexa Fluor 647-conjugated anti-SOX2 antibody (cat #, 560302; BD Biosciences) for 40 min at 4° C. in dark. Alexa Fluor 647-conjugated anti-IgG2a, κ Isotype (cat #, 558053; BD Biosciences) was used as control. Data were acquired on a BD FACSCalibur flow cytometer (BD Biosciences) using BD CellQuest Pro software (BD Biosciences) and analyzed with FlowJo software v10.1 (Tree Star, Ashland, USA).
For orientation: A western blot detects proteins with antibodies after separation by electrophoresis.

In data set [4] the test system is urothelial CSCs. As to the kind of experiment: Sphere formation assay (CSC properties). Type of data set: cell-based, human. The conditions noted are these: for sphere formation / sphere-forming ability: agent alone, bladder cancer cells. The procedure: Sphere formation was induced by culturing cells (2×10^4/well) in DMEM/Ham's F12 50/50 Mix (Mediatech) supplemented with B-27 (Life Technologies), 20 ng/mL FGF-basic (Peprotech), 20 ng/mL EGF (Peprotech). Cell culture was performed in ultra-low attachment 6 well plates (Corning, Lowell, USA) for 10 days. The medium was replaced every other day. Sphere formation was evaluated using the inverted phase-contrast microscope, and single sphere with a diameter larger than 100 μm was counted using NIS-Elements Microscope Imaging Software. To redifferentiate spheres, spheres were plated in standard growth medium with 10% FBS in dishes supporting cell attachment, and incubated for 7 days. For self-renewal assay, primary spheres were collected by gentle centrifugation (5 min at 400×g), dissociated with Stempro Accutase Cell Dissociation Reagent (Life Technologies), and mechanically disrupted with a pipette. The cell suspension was sieved through 40 μm cell strainer cap filter to achieve a single-cell suspension, and then equal numbers of alive cells were plated in ultralow attachment plates to generate the second spheres. Again, spheres were counted on day 14 and digested to generate the third Spheres. All the experiments were performed in triplicate and repeated at least three times.

Data set [5] has as its system panel of miRNAs. As to the kind of experiment: Expression of a panel of miRNAs in BFTC 905 cells. Type of data set: cell-based, human. The procedure: Total RNA from cell lines was isolated using the RNeasy Plus Mini kit (Qiagen, Valencia, USA) according to the manufacturer's protocol. Total RNA extraction from bladder tissue was performed with the QIAzol Lysis Reagent (Qiagen) followed by phenol extraction and ethanol precipitation. Total RNA was eluted in DEPC treated water and stored at −80° C. Total RNA extraction from urine was performed using the MirVana miRNA Isolation Kit (Ambion, Austin, USA). These total RNA were converted to cDNA using the SuperScript III First-Strand Synthesis System (Life technologies, Carlsbad, USA), which was then used as a template for Q-RT-PCR. Q-RT-PCR was performed using the Fast SYBR Green Master Mix (Thermo Fisher Scientific, Waltham, USA) on a 7900HT Fast Real-Time PCR System (Life technologies) in triplicate. Micro RNA (miRNA) extraction was performed using the MirVana miRNA Isolation Kit, and was reverse transcribed using TaqMan reverse transcription kit (Applied Biosystems, Foster City, USA) and miRNA-specific RT primers provided with TaqMan microRNA assays (Applied Biosystems). Q-RT-PCR for miRNAs was performed using the TaqMan Universal PCR Master Mix according to the manufacturer's protocol. SDS software (Applied Biosystems) was used to determine cycle threshold (Ct) values. Expression level was quantified relative to β-actin for mRNA and RNU6B for miRNA using the 2-ΔΔCt method (12).

In data set [6] the test system is DNMT 1 and 3A. The experiment in a line: Western blotting of DNMTs. Type of data set: cell-based, human. As for the experimental part: as §1
Data set [7] deals with YAP1. The experiment in a line: YAP1 expression by western blotting. Type of data set: cell-based, human. The procedure:
as §1

Data set [8] can be described thus: Body weight of treated mice. Type of data set: in vivo. The conditions noted are these: mouse, in vivo. The procedure: For celecoxib and/or VP treatment, celecoxib (5 mg/kg) was administered via intraperitoneal (i.p.) injection once a day (17), and VP (50 mg/kg) was administered via i.p. every other day (18). EP4 antagonist ONO-AE3-208 (10 mg/kg) was administered via i.p. once a day (19). Control was applied with same volume (100 μL per injection) of 10% dimethyl sulphoxide in […] (Sigma-Aldrich). For GEM and CDDP (GC) treatment (i.p.), CDDP (6 mg/kg) was only applied after the first GEM (60 mg/kg) treatment on day 2, followed by three consecutive treatments of GEM on day 5, 8 and 11 (17). The next cycle was started on day 18, and the treatment was continued until tumor reached 2 cm in diameter. For erlotinib treatment, the mice were treated once a day, 6 days per week, by oral gavage with erlotinib (100 mg/kg) or control (PBS containing 0.5% methyl cellulose (Sigma-Aldrich) and 0.1% TWEEN 80) (20). Tumor size was measured at least every three days. […] To establish xenograft model with acquired resistance to erlotinib, erlotinib sensitive 5637 cells were injected subcutaneously into the both flanks of 4-5 week-old NSG mice, and the tumors were consecutively passaged from NSG mice treated with erlotinib and celecoxib until the development of refractory tumors. […]

Data set [9] has as its system COX2. The experiment in a line: COX2 expression by western blotting. Type of data set: cell-based, human. As to conditions: agent alone; bladder cancer cells. The procedure:
Whole cell lysates were extracted using RIPA buffer (Thermo Scientific) supplemented with 10 μL/mL Halt™ Protease Inhibitor Cocktail Kit (Life Technologies) and 30 μL/mL Halt™ Phosphatase Inhibitor Cocktail Kit (Life Technologies). […] Secondary horseradish peroxidase (HRP)-conjugated antibodies were obtained from Cell Signaling Technology, and chemiluminescent detection of HRP-labeled antibodies was performed using Amersham ECL Prime Western Blotting Detection Reagent (GE Healthcare, Piscataway, USA). As loading control, β-actin was used.

[10] abbreviates: agent alone, bladder cancer cells.
The mark [11] stands for this setting: PGE2 added to celecoxib-treated cells.

On to `Nc1ncn([C@H]2C[C@H](O)[C@@H](CO)O2)c(=O)n1` [5-Aza-dC, 5-Aza-2′-deoxycytidine], for which, in data set [1], the “promoter methylation of the let-7 host gene” value is listed as “demethylated”. Further, in data set [2], the let-7 expression entry is recorded as “restoration”.
Take `CC(C(=O)Nc1cc(C#N)ccc1CCCC(=O)O)c1ccc(F)c2ccccc12` (centres unmarked) [EP4-specific antagonist, ONO-AE3-208]: in data set [3] (setting [10]), the SOX2 expression result is listed as “dramatic reduction”. The “sphere formation / sphere-forming ability” value in data set [4] is “dramatic reduction”.
Consider `CCCCC[C@H](O)/C=C/[C@H]1[C@H](O)CC(=O)[C@@H]1C/C=C\CCCC(=O)O` [PGE2, Prostaglandin E2], for which, in data set [3] (setting [11]), the SOX2 expression entry is “restored”. The sphere-forming ability entry in data set [4] (setting [11]) is listed as “restored”. Besides, the “expression of several miRNAs” value in data set [5] is given as “reduced”. The “promoter methylation of the let-7 host gene” value in data set [1] is recorded as “Promoter methylation of the let-7 host gene was observed”. For the same molecule, the let-7 expression entry in data set [2] is “reduced”. In data set [6], the “DNMT 1 and 3A expression” value is given as “upregulated”.
With `CC(C)(C)n1nc(-c2ccc(Cl)cc2)c2c(N)ncnc21` [Src inhibitor, PP2], the YAP1 expression entry in data set [7] (Src inhibitor added to COX2 inhibitor-treated cells) is listed as “downregulated”.
In the case of `C=Cc1c(C)c2cc3nc(cc4[nH]c(cc5nc(cc1[nH]2)C(C)=C5CCC(=O)O)c(CCC(=O)OC)c4C)[C@@]1(C)C3=CC=C(C(=O)OC)[C@H]1C(=O)OC` [VP, 3-[(23S,24R)-14-ethenyl-5-(3-methoxy-3-oxopropyl)-22,23-bis(methoxycarbonyl)-4,10,15,24-tetramethyl-25,26,27,28-tetraazahexacyclo[16.6.1.1^3,6.1^8,11.1^13,16.0^19,24]octacosa-1,3,5,7,9,11(27),12,14,16,18(25),19,21-dodecaen-9-yl]propanoic acid], the SOX2 expression result in data set [3] (setting [10]) is reported as “reduced”. In addition, the “body weight loss of mice” value in [8] is “did not observe body weight loss”. Also, in data set [9], the COX2 expression entry is on record as “induced”.
For `N.N.[Cl][Pt][Cl]` [cisplatin, Cisplatin], the YAP1 expression result in data set [7] (setting [10]) was “overexpression”. Besides, the SOX2 expression entry in data set [3] (setting [10]) was “overexpression”. For the same molecule, the “sphere formation / sphere-forming ability” value in data set [4] is listed as “increased”. In addition, the COX2 expression entry in [9] is recorded as “overexpression”.
Turning to `CCc1cccc2c3c([nH]c12)C(CC)(CC(=O)O)OCC3` (centres unmarked) [etodolac, Etodolac], in data set [3] (setting [10]), the SOX2 expression result is recorded as “dramatic reduction”. For the same molecule, the “sphere formation / sphere-forming ability” value in data set [4] is on record as “dramatic reduction”.
